These results are taken from publication PMC5298231, “The Malaria Parasite's Lactate Transporter PfFNT Is the Target of Antiplasmodial Compounds Identified in Whole Cell Phenotypic Screens” (PLoS Pathogens, 2017).

For data set [1], the system named is MMV007839-selected culture A (PfFNT Gly107Ser). As to the kind of experiment: Parasite proliferation assay, MMV007839-selected culture A. Type of data set: cell-based, Plasmodium falciparum. As to conditions: MMV007839-selected culture A; mean ± SEM; read-out: IC50 value, growth inhibition. Here is the method: (§1) Parasite proliferation was measured in 96-well plates using a fluorescent DNA-intercalating dye. The assays were initiated with erythrocytes infected with predominantly ring-stage parasites, and the starting parasitaemia was 0.5–1% and the haematocrit was 1%.
(§2) For MMV007839-selected culture A, the drug concentration was increased by 5 nM increments on Day 18, Day 21, and every two days thereafter. […] The cultures were provided with fresh medium and blood and diluted to reduce the parasitaemia as needed.

The subject of data set [2] is 3D7 parasites. As to the kind of experiment: Parasite proliferation assay, 3D7. In kind it is cell-based, Plasmodium falciparum. To be noted: 3D7 (our laboratory); mean ± SEM; read-out: IC50 value, growth inhibition. The procedure:
as §1

Data set [3] has as its system MMV007839-selected culture B (PfFNT Gly107Ser). As to the kind of experiment: Parasite proliferation assay, MMV007839-selected culture B. Type of data set: cell-based, Plasmodium falciparum. As to conditions: MMV007839-selected culture B; mean ± SEM; read-out: IC50 value, growth inhibition. The procedure:
as §1, §2

The test system of data set [4] is PfCRT (from the chloroquine-resistant Dd2 strain). As to the kind of experiment: [3H]chloroquine uptake by Xenopus oocytes expressing PfCRT. Type of data set: cell-based, Plasmodium falciparum. To be noted: 1 μM and 4 μM; pH 5.5. From the text:
(PfCRT; from the chloroquine-resistant Dd2 strain) and on [^3H]hypoxanthine transport by oocytes expressing the P. falciparum equilibrative nucleoside/nucleobase transporter PfENT1 [27, 28].
The oocyte expression vectors containing PfFNT, PfENT1 and PfCRT were made previously. The Gly107Ser mutant form of PfFNT was generated through site-directed mutagenesis of the oocyte expression vector containing wild-type (3D7) PfFNT using primers 9 and 10 (S2 Table). Oocytes were harvested from adult female Xenopus laevis frogs and prepared as described previously. cRNA was made using the mMessage mMachine T7 transcription kit and the MEGAclear kit (Ambion) and microinjected into oocytes as outlined elsewhere. […] The uptake of radiolabelled substrates was measured 2–5 days post-injection at 27.5°C in ND96 buffer (containing 96 mM NaCl, 2 mM KCl, 1 mM MgCl2, 1.8 mM CaCl2, 10 mM MES and 10 mM Tris-base; pH-adjusted to the value specified in the relevant Figure legends). […] The oocytes were then transferred to separate wells of a 96-well plate, lysed with 10% SDS, and the radioactivity measured as described previously.
The data are averaged from four to five independent experiments (performed using oocytes from different frogs) and are shown + SEM. In B, the uptake of [^3H]hypoxanthine (0.36 μM) was measured over 30 min at pH 6.0. […]

Another data set deals with T1, PfFNT^Gly107Ser (Plasmodium falciparum, UniProt O77389, G107S).
T1 construct: expressed in transfected cells; host or cells: Xenopus laevis oocytes (cRNA microinjected, 30 ng)
T1 sequence (O77389 1-309 G107S): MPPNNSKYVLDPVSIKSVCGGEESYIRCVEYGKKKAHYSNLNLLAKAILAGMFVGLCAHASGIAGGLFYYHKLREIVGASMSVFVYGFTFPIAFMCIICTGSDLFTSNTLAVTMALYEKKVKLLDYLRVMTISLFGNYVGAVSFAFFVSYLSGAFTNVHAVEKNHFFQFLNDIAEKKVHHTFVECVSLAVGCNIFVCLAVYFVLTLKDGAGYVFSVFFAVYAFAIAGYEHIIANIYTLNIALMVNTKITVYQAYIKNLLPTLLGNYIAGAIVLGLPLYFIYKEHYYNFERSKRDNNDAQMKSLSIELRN
As to the kind of experiment: PfFNT-mediated L-[14C]lactate uptake by Xenopus oocytes expressing PfFNT Gly107Ser. In kind it is cell-based. To be noted: PfFNT Gly107Ser in Xenopus oocytes; pH 6.4, 27.5°C, 10 min; mean ± SEM, n = 4; read-out: IC50, inhibition of PfFNT-mediated L-[14C]lactate transport. The procedure:
The PfFNT-mediated uptake of L-[^14C]lactate by oocytes expressing native PfFNT (black symbols) or oocytes expressing PfFNT^Gly107Ser (white symbols) was measured in the presence of a range of different concentrations of MMV007839 (A) and MMV000972 (B). […] To enable a visual comparison between the native PfFNT and PfFNT^Gly107Ser datasets, only part of the concentration range used for the latter is shown in the main panels. The insets show the data obtained for PfFNT^Gly107Ser over the full concentration range tested. In all cases, the data are averaged from four independent experiments (using oocytes from different frogs) and are shown ± SEM. The uptake was measured at 27.5°C over 10 min at pH 6.4 using 2.7 μM L-[^14C]lactate and 600 μM unlabelled L-lactate.
The oocyte expression vectors containing PfFNT, PfENT1 and PfCRT were made previously. […] The uptake of radiolabelled substrates was measured 2–5 days post-injection at 27.5°C in ND96 buffer (containing 96 mM NaCl, 2 mM KCl, 1 mM MgCl2, 1.8 mM CaCl2, 10 mM MES and 10 mM Tris-base; pH-adjusted to the value specified in the relevant Figure legends). […] The oocytes were then transferred to separate wells of a 96-well plate, lysed with 10% SDS, and the radioactivity measured as described previously.

The conditions of data set [5]: ref [36]; cited from earlier work.
The test system of a further data set is Dd2 parental parasites. As to the kind of experiment: L-[14C]lactate uptake by isolated Dd2 parental parasites. To be noted: read-out: IC50, inhibition of L-[14C]lactate uptake; Dd2 (parental) parasites; pH 6.1, 4°C, 20 s; mean ± SEM.
For a further data set, the system named is non-injected oocytes. In kind it is cell-based, Xenopus laevis. As to conditions: full range of inhibitor concentrations.
Data set [6] has as its system 3D7 parasites. As to the kind of experiment: Parasite viability after timed exposure and washout (parasitaemia on Day 3). To be noted: 6 μM; for Effect on parasite viability: parasitaemia three days later.

`COc1ccc2c(c1)OC(O)(C(F)(F)C(F)(F)F)CC2=O` (centres unmarked) [MMV007839]: the 50% inhibitory concentration (IC50) in data set [1] worked out at 35.8 ± 2.7 µM; with 3D7 parasites [2] it was 260 ± 30 nM; in [3], 37.5 ± 2.7 µM; on PfFNT^Gly107Ser it was 1300 ± 200 nM; in the data set with Dd2 parental parasites, 158 ± 42 nM. Besides, the “Effect on transport of [3H]chloroquine via PfCRT” value in [4] is “not inhibiting”. Besides, in data set [5], the “Toxicity in Malaria Box toxicity testing” value is “display toxicity in some assays”. The “Effect on L-[14C]lactate transport into control (non-injected) oocytes” value with non-injected oocytes is “no changes”. In addition, the “Effect on parasite viability” value in the data set on 3D7 parasites [6] (1 h exposure) and in the data set with 3D7 parasites [6] (3 h exposure) was “did not significantly affect” each time. The “Parasitaemia three days after exposure, of control levels” value in the data set with 3D7 parasites [6] (6 h exposure, mean ± SEM, n = 3) is listed as 49 ± 7%.
